The source of these data is patent US20160278375A1, “BISCATIONIC AND TRISCATIONIC AMPHIPHILES AS ANTIMICROBIAL AGENTS” (Temple University of the Commonwealth System of Higher …, priority 2013, published 2016).

Like-named read-outs stand apart in the source and are kept apart here.

In data set [1] the test system is Staphylococcus aureus (SH1000). Kind of data set: MIC determination by two-fold serial dilution in 96-well microtiter plates. It is filed as cell-based. Conditions: Table 1, 37° C., 72 hours, read-out: MIC, Gram positive S. aureus. On the procedure:
(§1) For the compounds above, respective minimum inhibitory concentration (MIC) values against the Gram-positive S. aureus, E. faecalis, Gram-negative E. coli and P. aeruginosa were determined, respectively, by standard methods. […] Cell viability was verified by serial dilution and plating on MH agar. Both aqueous and fresh media positive controls were performed for each trial. Overnight bacterial cultures of Staphylococcus aureus (SH1000), Enterococcus faecalis (OG1RF), Escherichia coli (MC4100), and Pseudomonas aeruginosa (PAO1-WT) were grown in Mueller-Hinton broth at 37° C., with all but E. faecalis under shaking Overnight cultures were diluted to approximately 10^6 cfu/mL as determined by OD measurement at 640 nm and plating on MH agar.
(§2) Each compound was serially diluted two-fold with water from 1 mM down to 1 μM yielding twelve dilutions per compound. In triplicate, 100 µL of each dilution were pipetted into the appropriate well of a 96-well microtiter plate, and then […] of overnight bacterial culture diluted to ca. 10^6 cfu/mL were inoculated into each well. Microtiter plates were incubated at 37° C. for 72 hours. Up to seven compounds were tested against one bacterial species at twelve decreasing concentrations per 96-well plate.

Data set [2] concerns Escherichia coli (MC4100). The description is as above. It is filed as cell-based. The settings on record: read-out: MIC, Gram negative E. coli. The method, then:
as §1, §2

Data set [3] has as its system Enterococcus faecalis (OG1RF). The description is as above. It is filed as cell-based. The settings on record: Table 1, 37° C., 72 hours, read-out: MIC, Gram positive E. faecalis. The method, then: as §1, §2
Data set [4] deals with Pseudomonas aeruginosa (PAO1-WT). Described as above. It is filed as cell-based. The settings on record: Table 1, 37° C., 72 hours, read-out: MIC, Gram negative P. aeruginosa. On the procedure: as §1, §2
In the next data set the test system is B. subtilis. Conditions: pH 7.4; cited from earlier work.
Another data set has as its system S. aureus. Conditions: pH 7.4; cited from earlier work.
Data set [5] deals with pre-established Staph aureus biofilms. Kind of data set: visual disruption of pre-established biofilms. It is filed as cell-based. Conditions: disperses biofilms. The method, then:
Compound (12,2,0,2,12) causes a visual disruption of pre-established Staph aureus biofilms at 25 μM (micromolar). Thus it at least disperses biofilms at 25 μM.

The test system of data set [6] is S. aureus, E. faecalis, E. coli and P. aeruginosa. Kind of data set: MIC determination, statements across the bacteria tested. It is filed as cell-based. The method, then:
as §1, §2

Another data set can be described thus: water solubility. It is filed as physicochemical.
[7] abbreviates: S. aureus, E. faecalis, E. coli, P. aeruginosa, read-out: MIC values against all four bacterial species tested.

As to `CCCCCCCCCCCCCCCCCCCC[N+](C)(C)CC[N+](C)(C)CCCCCCCCCCCCCCCC` [(20, 2, 16)], the MIC in data set [1] (Staphylococcus aureus) came to 16 µM; in data set [2] (Escherichia coli, 72 h) it was 63 µM; in data set [3] (Enterococcus faecalis), 32 µM; in data set [4] (Pseudomonas aeruginosa, PAO1) it was 63 µM.
As for `N=C(N=C(N)N)Nc1cccc(NC(=N)N=C(N)N)c1` [Compound 11a], the “MBIC B. subtilis” value with B. subtilis is 30 µM. In the data set with S. aureus, the “MBIC S. aureus” value was 300 µM.
For `N=C(N=C(N)N)Nc1cccc(NC(=N)N=C(N)N)c1` [Compound 11b], the “MBIC B. subtilis” value in the data set with B. subtilis was 7 ± 3 µM. For the same compound, the “MBIC S. aureus” value in the data set with S. aureus is 750 ± 250 µM.
Turning to `CCCCCCCCCCCC[N+](C)(C)CCN(C)CC[N+](C)(C)CCCCCCCCCCCC.[Br-].[Br-]` [Compound 12, 2, 0, 2, 12], the “concentration causing visual disruption of pre-established biofilms” value in data set [5] was 25 µM. Further, the MIC in data set [6] (setting [7]) is not above 4 µM.
For the compound `CCCCCCCCCCCC[N+](C)(C)CC[N+](C)(C)CCCCCCCCCC` [Compound (12, 2, 10)], in data set [6] (setting [7]), the MIC is not above 2 µM.
With `CCCCCCCCCCCCC[N+](C)(C)CC[N+](C)(C)CCCCCCCCCC` [Compound (13, 2, 10)], the MIC was found to be 1 µM in data set [1] (Staphylococcus aureus); 2 µM in data set [2] (Escherichia coli, 72 h); 1 µM in [3] (Enterococcus faecalis); 2 µM in data set [4] (Pseudomonas aeruginosa, PAO1).
With `CCCCCCCCCCCCCCCCCC[N+](C)(C)CCN(C)C.[Br-]` [Compound (18, 2, 0)], the MIC is 63 µM in [2] (Table 1, 37° C., 72 hours); 63 µM in data set [4] (Pseudomonas aeruginosa, PAO1); 2 to 4 µM in [6] (S. aureus and E. faecalis, read-out: MIC values versus Gram positive bacteria).
For `CCCCCCCCCCCCCCCCCC[N+](C)(C)CC[N+](C)(C)CCCCCCCC` [Compound (18, 2, 8)], in the data set “water solubility”, the water solubility result is recorded as “fully water soluble”.
Still for that read-out and setting: to `CCCCCCCCCCCCCCCCCCCC[N+](C)(C)CC[N+](C)(C)CCCCCCCC` [Compound (20, 2, 8)] belongs “fully water soluble”.
Consider “N-alkyl-N-benzyl-N,N-dimethylammonium chloride [benzalkonium chloride, reference compound]”, for which the MIC in [1] was 8 µM; in data set [2] (Table 1, 37° C., 72 hours), 32 µM; in data set [3], 8 µM; in [4], 63 µM. Moreover, the fold less activity in data set [6] (compared with compound (12,2,10)) is given as 4-32 fold.

As usually defined, the MIC is the lowest concentration that inhibits growth of the organism.
